Test results taken from PubChem BioAssay AID256 (DTP/NCI, 2004).
Inconclusive results and toxic doses are left out.

System: CD2F1 mice, L1210 leukemia ip, survival T/C
Assay: NCI In Vivo Anticancer Drug Screen. Data for tumor model L1210 Leukemia (intraperitoneal) in CD2F1 (CDF1) mice
Details: endpoint: mean survival time, higher = longer survival
In short: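 Activity against a transplanted murine tumor was judged by comparing the compound group with a vehicle group. The outcome in the treated animals was divided by that in the controls.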

[1] = dose: 100.0 mg/kg/injection, schedule: Q01DX009 (ip), vehicle: saline with Tween-80
[2] = dose: 200.0 mg/kg/injection, schedule: Q01DX009 (ip), vehicle: saline with Tween-80
[3] = dose: 100.0 mg/kg/injection, schedule: Q04DX003 (ip), vehicle: saline with Tween-80
[4] = dose: 200.0 mg/kg/injection, schedule: Q04DX003 (ip), vehicle: saline with Tween-80
[5] = dose: 400.0 mg/kg/injection, schedule: Q04DX003 (ip), vehicle: saline with Tween-80
[6] = dose: 400.0 mg/kg/injection, schedule: Q01DX009 (ip), vehicle: saline with Tween-80
[7] = dose: 50.0 mg/kg/injection, schedule: Q01DX009 (ip), vehicle: saline
[8] = dose: 200.0 mg/kg/injection, schedule: Q01DX009 (ip), vehicle: saline
[9] = dose: 100.0 mg/kg/injection, schedule: Q01DX001 (ip), vehicle: saline with Tween-80
[10] = dose: 200.0 mg/kg/injection, schedule: Q01DX001 (ip), vehicle: saline with Tween-80
[11] = dose: 400.0 mg/kg/injection, schedule: Q01DX001 (ip), vehicle: saline with Tween-80
[12] = dose: 100.0 mg/kg/injection, schedule: Q01DX001 (ip), vehicle: saline
[13] = dose: 200.0 mg/kg/injection, schedule: Q01DX001 (ip), vehicle: saline
[14] = dose: 400.0 mg/kg/injection, schedule: Q01DX001 (ip), vehicle: saline

Cc1ccc(CO)cc1C
T/C (dose: 50.0 mg/kg/injection, schedule: Q01DX009 (ip), vehicle: saline with Tween-80): 101 % of control
T/C [1]: 97 % of control
T/C [2]: 101 % of control

OCCCc1nc2ccccc2[nH]1
T/C [3]: 102 % of control
T/C [4]: 107 % of control
T/C [5]: 98 % of control

CN(C)S(=O)(=O)Oc1ccccc1[N+](=O)[O-]
T/C [1]: 100 % of control
T/C [2]: 97 % of control
T/C [6]: 98 % of control

CN(C)C(=O)c1cccc(COc2ccc(N)cc2Cl)c1
T/C [7]: 113 % of control
T/C [1]: 90 % of control
T/C (dose: 100.0 mg/kg/injection, schedule: Q01DX009 (ip), vehicle: saline): 104 % of control
T/C [2]: 93 % of control
T/C [8]: 105 % of control
T/C [4]: 87 % of control
T/C [6]: 95 % of control
T/C [5]: 89 % of control

O=C(/C=C\c1ccc(Cl)cc1)c1ccccc1
T/C [9]: 100 % of control
T/C [10]: 96 % of control
T/C [11]: 96 % of control

CCOC(=O)NC(=O)OCC
T/C (dose: 100.0 mg/kg/injection, schedule: Q01DX001 (ip), vehicle: saline sonified): 102 % of control
T/C (dose: 200.0 mg/kg/injection, schedule: Q01DX001 (ip), vehicle: saline sonified): 107 % of control
T/C (dose: 400.0 mg/kg/injection, schedule: Q01DX001 (ip), vehicle: saline sonified): 100 % of control

C=CC(C)(C)S(=O)[O-].C[c-]1[c-][c-][c-][c-]1.[C-]#[O+].[C-]#[O+].[Fe+6]
T/C (dose: 50.0 mg/kg/injection, schedule: Q04DX002 (ip), vehicle: saline): 109 % of control
T/C (dose: 100.0 mg/kg/injection, schedule: Q04DX002 (ip), vehicle: saline): 102 % of control

CN(C)Cc1ccccc1
T/C [9]: 104 % of control
T/C [10]: 110 % of control

O=C(Nc1cccc([N+](=O)[O-])c1)N(c1ccccc1)c1ccccc1
T/C [12]: 88 % of control
T/C [13]: 94 % of control
T/C [14]: 93 % of control

c1ccc2c(c1)[nH]c1c2c[n+]2c3c(cccc13)CCC2
T/C (dose: 6.25 mg/kg/injection, schedule: Q01DX001 (ip), vehicle: saline): 101 % of control
T/C (dose: 12.5 mg/kg/injection, schedule: Q01DX001 (ip), vehicle: saline): 107 % of control

COc1cc(OC)cc(C(c2nccc3cc(OC)c(OC)cc23)C(O)(C(F)(F)F)C(F)(F)F)c1 (stereo not drawn)
T/C [9]: 97 % of control
T/C [1]: 90 % of control
T/C [10]: 93 % of control
T/C [2]: 93 % of control
T/C [11]: 86 % of control
T/C [6]: 89 % of control

COC(=O)C1CCCCC1C(=O)OC (stereo not drawn)
T/C (dose: 100.0 mg/kg/injection, schedule: Q04DX002 (ip), vehicle: saline with Tween-80): 97 % of control
T/C [3]: 104 % of control
T/C (dose: 200.0 mg/kg/injection, schedule: Q04DX002 (ip), vehicle: saline with Tween-80): 97 % of control
T/C [4]: 98 % of control
T/C (dose: 400.0 mg/kg/injection, schedule: Q04DX002 (ip), vehicle: saline with Tween-80): 101 % of control

NC(COC(c1ccccc1)(c1ccccc1)c1ccccc1)C(=O)O (stereo not drawn)
T/C (dose: 25.0 mg/kg/injection, schedule: Q01DX009 (ip), vehicle: saline): 103 % of control
T/C [7]: 113 % of control
T/C [8]: 150 % of control
T/C (dose: 300.0 mg/kg/injection, schedule: Q01DX009 (ip), vehicle: saline): 122 % of control
T/C (dose: 400.0 mg/kg/injection, schedule: Q01DX009 (ip), vehicle: saline): 111 % of control

COc1ccccc1-n1c(O)c(N=Nc2ccccc2)c(=O)n(-c2ccccc2)c1=S
T/C (dose: 100.0 mg/kg/injection, schedule: Q04DX003 (ip), vehicle: acetone): 90 % of control

O=P1(C(Cl)Cl)OCCCO1
T/C [12]: 103 % of control
T/C [13]: 100 % of control
T/C [14]: 100 % of control

C=CC(=O)Nc1ccccc1
T/C (dose: 50.0 mg/kg/injection, schedule: Q04DX002 (ip), vehicle: Klucel (hydroxypropylcellulose) (HPC)): 94 % of control
T/C (dose: 100.0 mg/kg/injection, schedule: Q04DX002 (ip), vehicle: Klucel (hydroxypropylcellulose) (HPC)): 94 % of control
T/C [3]: 96 % of control
T/C (dose: 200.0 mg/kg/injection, schedule: Q04DX002 (ip), vehicle: Klucel (hydroxypropylcellulose) (HPC)): 97 % of control
T/C [4]: 96 % of control
T/C [5]: 97 % of control
